Experiments:
CA IX [1] = molecular target: T1, CA IX (Homo sapiens, UniProt Q16790); assay: CAIX competitive binding assay
T1 construct: endogenous in cells; host or cells: HT29 cells under hypoxia (1.3% O2)
Method: (§1) HT29 cells were seeded into 24-well plates at 0.5×10^6 cells per well in McCoy's 5A medium containing 10% fetal bovine serum (FBS) and were allowed to attach for 48 h in an incubator with an atmosphere of 5% CO2/95% air and 37° C. The evening prior to the binding assay, cells were placed in a Hypoxylab workstation set at 10 mm Hg (1.3% O2), 5% CO2, and 37° C. (hypoxic conditions). A single concentration of ^125I-CAIX radioligand was used (2 nM). Serial dilutions of competitors (EC2674 and EC2711) were prepared in McCoy's 5A medium/10% FBS. Binding solutions (500 μL) containing the radioligand and competitor dilutions were placed on the cells, and cells were incubated in the Hypoxylab workstation for 2 h under hypoxic conditions. Cells were then removed from the Hypoxylab and were washed 3 times with ice-cold PBS, pH 7.4. Cells were solubilized with 500 μL of 0.1N NaOH/0.1% Triton X-100. Cell lysates (450 μL) were counted in a Wizard2 gamma counter (Perkin Elmer). CPM values for each competitor concentration were normalized to values for radioligand binding in the absence of competitor.

CA IX [2] = molecular target: T1, CA IX; assay: CA IX competitive binding assay (pH 6.8 vs. 7.4 buffers + Zn2+); details: HT29 cells, 2 nM 125I-EC2674, 2 hr, 37° C.
Method: as §1, with “CPM values for each competitor concentration were normalized to values for radioligand binding in the absence of competitor.” left out
Following the procedure for the previous competitive binding assay (Example 22), the CAIX Competitive Binding Assay (pH 6.8 vs. 7.4 Buffers+Zn^2+) was carried out with the following modifications from Example 22. […] Only the homologous cold-iodine labeled CAIX ligand, EC2674, was assessed for competitive binding.

Row | IC50 (CA IX [1]; HT29 cells, 2 nM 125I-EC2674, 2 hr, 37° C., 1.3% O2, McCoy's Medium+10% FBS, read-out: IC50) | IC50 (CA IX [2]; 1.3% O2, pH 6.8 buffer (20 mM BES, 140 mM NaCl, 1 mM ZnSO4)) | IC50 (CA IX [2]; 1.3% O2, pH 7.4 buffer (20 mM Tris, 140 mM NaCl, 1 mM ZnSO4)) | Compound | IC50 (CA IX [1])
1 | 852 nM | 62.5 nM | 66.5 nM | NS(=O)(=O)c1ccc(NC(=O)CN(CCN(CC(=O)Nc2ccc(S(N)(=O)=O)cc2)CC(=O)N[C@@H](CNC(=O)CCc2cc(I)c(O)c(I)c2)C(=O)O)CC(=O)O)cc1 [EC2674] | –
2 | – | – | – | CCCC(=O)OCN(C(=O)[C@@H](NC(=O)[C@H]1CCCCN1C)C(C)CC)[C@H](C[C@@H](OC(C)=O)c1nc(C(=O)N[C@@H](Cc2ccc(O)cc2)C[C@H](C)C(=O)NNC(=O)OCCSSC[C@H](NC(=O)[C@H](CC(=O)O)NC(=O)[C@H](CC(=O)O)NC(=O)[C@H](CC(=O)O)NC(=O)CN(CCN(CC(=O)O)CC(=O)Nc2ccc(S(N)(=O)=O)cc2)CC(=O)Nc2ccc(S(N)(=O)=O)cc2)C(=O)O)cs1)C(C)C (stereo partly shown) [EC2711] | 9 nM
